Experimental data reported in the supplement of paper PMC10307832.

Compound: COc1cc(Nc2ncc(F)c(Nc3ccc4c(n3)NC(=O)C(C)(C)O4)n2)cc(OC)c1OC [R406] + C[C@@H](Oc1cc(-c2cnn(C3CCNCC3)c2)cnc1N)c1c(Cl)ccc(F)c1Cl [Crizotinib] (partner 1 µM)
Assay: relative viability (nuclei count vs DMSO), 5 days (fraction); higher = more cells survive
Details: first compound 8 µM
Procedure, shortened: (§1)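 For relative viability, nuclei counts in treated wells were divided by those in vehicle wells. Lung cancer cell lines had been pin-tool dosed in 1536-well plates the day after seeding and cultured for 5 days, then fixed and stained in one step (final 0.05% Triton X-100, 1% formaldehyde, 1 ug/ml Hoechst) and imaged at 4×. Doses were one drug alone or a fixed anchor-drug dose plus five library-drug doses (not always all listed) in √10 steps, and values are duplicate-plate medians.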

Point of comparison: COR-L23, relative viability 0.383. Against it:
- H3255 — higher, 0.77
- COR-L 105 — lower, 0.263
- IA-LM — higher, 0.657
- LOU-NH91 — higher, 0.57
- ChaGo-K-1 — higher, 0.702
- NCI-H2405 — higher, 0.638
- HOP-62 — higher, 1.17
- HCC-44 — lower, 0.341
- A549 — lower, 0.175
- SK-MES-1 — higher, 0.43
- LU99A — lower, 0.218
- BEN — higher, 0.641
- NCI-H1299 — higher, 0.543

Compound: COc1cc(Nc2ncc(F)c(Nc3ccc4c(n3)NC(=O)C(C)(C)O4)n2)cc(OC)c1OC [R406] + C[C@]1(O)C[C@@H](c2nc(-c3ccc4ccc(-c5ccccc5)nc4c3)c3c(N)nccn32)C1 [Linsitinib] (partner 1 µM)
Assay: as above
Details: first compound 0.08 µM
Procedure, shortened: as §1

Point of comparison: LU99A, relative viability 0.518. Against it:
- NCI-H838 — higher, 1.03
- EBC-1 — higher, 1.01
- NCI-H1703 — higher, 0.742
- NCI-H1993 — higher, 0.762
- NCI-H441 — lower, 0.377
- PC-14 — higher, 0.941
- LCLC-103H — higher, 1.04
- NCI-H596 — higher, 1.09
- NCI-H2126 — higher, 0.683
- EMC-BAC-2 — higher, 0.817
- NCI-H2085 — higher, 0.899
- Calu-6 — higher, 0.937
- HCC-366 — higher, 0.676
- NCI-H1666 — higher, 0.837
- NCI-H647 — higher, 0.813
- LK-2 — lower, 0.513
- NCI-H2087 — higher, 1.29
- NCI-H358 — higher, 0.889
- H3255 — higher, 0.84
- COR-L23 — higher, 0.886
- COR-L 105 — higher, 0.968
- IA-LM — higher, 0.746
- LOU-NH91 — higher, 0.992
- NCI-H1793 — higher, 0.703
- NCI-H2405 — higher, 0.916
- HOP-62 — higher, 0.773
- HCC-44 — higher, 0.62
- A549 — higher, 0.52
- SK-MES-1 — higher, 1.04
- BEN — higher, 0.946
- NCI-H1395 — higher, 1.02
- NCI-H1299 — higher, 0.979

Same assay, conditions: first compound 0.253 µM

Point of comparison: LOU-NH91, relative viability 0.882. Against it:
- NCI-H838 — higher, 1.15
- EBC-1 — higher, 1.07
- NCI-H1703 — lower, 0.859
- NCI-H1993 — lower, 0.656
- NCI-H441 — lower, 0.609
- PC-14 — higher, 1.05
- LCLC-103H — higher, 1.2
- NCI-H596 — higher, 1.2
- NCI-H2126 — lower, 0.783
- EMC-BAC-2 — lower, 0.87
- NCI-H2085 — higher, 1.08
- Calu-6 — higher, 1.08
- HCC-366 — lower, 0.776
- NCI-H1666 — lower, 0.792
- NCI-H647 — higher, 1.21
- LK-2 — lower, 0.573
- NCI-H2087 — higher, 1.04
- NCI-H358 — lower, 0.752
- H3255 — higher, 1.08
- COR-L23 — higher, 1.04
- COR-L 105 — higher, 1.13
- IA-LM — higher, 0.901
- NCI-H1793 — higher, 1.01
- NCI-H2405 — higher, 0.89
- HOP-62 — higher, 0.97
- HCC-44 — lower, 0.729
- A549 — lower, 0.659
- SK-MES-1 — higher, 1.13
- LU99A — lower, 0.499
- BEN — higher, 1.22
- NCI-H1395 — higher, 1.26
- NCI-H1299 — higher, 1.09

Same assay, conditions: first compound 0.8 µM

Point of comparison: NCI-H1299, relative viability 1.13. Against it:
- NCI-H838 — lower, 1.12
- EBC-1 — the same, 1.13
- NCI-H1703 — lower, 0.695
- NCI-H1993 — lower, 0.709
- NCI-H441 — lower, 0.662
- PC-14 — lower, 1.01
- LCLC-103H — lower, 0.976
- NCI-H596 — higher, 1.2
- NCI-H2126 — lower, 0.753
- EMC-BAC-2 — lower, 0.822
- NCI-H2085 — lower, 0.825
- Calu-6 — lower, 1.12
- HCC-366 — lower, 0.87
- NCI-H1666 — lower, 0.872
- NCI-H647 — higher, 1.15
- LK-2 — lower, 0.641
- NCI-H2087 — lower, 0.914
- NCI-H358 — lower, 0.723
- H3255 — lower, 1.04
- COR-L23 — lower, 1.04
- COR-L 105 — lower, 0.879
- IA-LM — lower, 0.921
- LOU-NH91 — lower, 0.982
- NCI-H1793 — higher, 1.2
- NCI-H2405 — lower, 1.01
- HOP-62 — lower, 0.936
- HCC-44 — lower, 0.758
- A549 — lower, 0.619
- SK-MES-1 — lower, 1.1
- LU99A — lower, 0.572
- BEN — lower, 0.981
- NCI-H1395 — higher, 1.18

Same assay, conditions: first compound 2.53 µM

Point of comparison: NCI-H2405, relative viability 0.731. Against it:
- NCI-H838 — lower, 0.645
- EBC-1 — higher, 0.732
- NCI-H1703 — lower, 0.186
- NCI-H1993 — lower, 0.675
- NCI-H441 — lower, 0.411
- PC-14 — higher, 0.852
- LCLC-103H — higher, 1.14
- NCI-H596 — higher, 0.878
- NCI-H2126 — lower, 0.657
- EMC-BAC-2 — lower, 0.707
- NCI-H2085 — higher, 0.971
- NCI-H1666 — higher, 0.735
- NCI-H647 — higher, 0.763
- LK-2 — lower, 0.379
- NCI-H2087 — higher, 1.03
- NCI-H358 — lower, 0.418
- H3255 — higher, 0.8
- COR-L23 — the same, 0.731
- COR-L 105 — lower, 0.705
- IA-LM — higher, 1.01
- LOU-NH91 — lower, 0.602
- NCI-H1793 — lower, 0.57
- HOP-62 — lower, 0.684
- HCC-44 — lower, 0.688
- A549 — lower, 0.584
- SK-MES-1 — lower, 0.569
- BEN — higher, 0.877
- NCI-H1395 — higher, 0.866
- NCI-H1299 — higher, 0.93

Same assay, conditions: first compound 8 µM

Point of comparison: NCI-H1666, relative viability 0.449. Against it:
- NCI-H838 — higher, 0.522
- EBC-1 — lower, 0.423
- NCI-H1703 — lower, 0.139
- NCI-H1993 — higher, 0.703
- NCI-H441 — higher, 0.47
- PC-14 — higher, 0.8
- LCLC-103H — higher, 0.792
- NCI-H596 — lower, 0.232
- NCI-H2126 — higher, 0.625
- EMC-BAC-2 — higher, 0.53
- NCI-H2085 — higher, 0.707
- Calu-6 — higher, 0.49
- HCC-366 — lower, 0.0785
- NCI-H647 — lower, 0.159
